The values that follow come from US5262521A (SRI International, priority 1991, dated 1993).

Usually IC50 stands for the concentration needed to halve the response being measured.

In series [1] the target is atrial peptide-degrading enzyme (ADE). The series is described as follows: Inhibition of ADE activity (AcAPI production from 50 μM AcAPII, HPLC). It is filed as biochemical, bovine. To be noted: Table 10. The protocol: The concentration of enzyme and AcAPII were chosen so that approximately 80% of the AcAPII was degraded in the absence of inhibitor. The production of AcAPI was determined by integration of the AcI peak, and percent inhibition by the inhibitors was calculated.
(e.) Enzyme Inhibitor Testing: To further characterize ADE, the extent of inhibition by several known peptidase inhibitors was determined.

The test system of series [2] is spontaneously hypertensive rats. The series is described as follows: Blood pressure and heart rate measurements in spontaneously hypertensive rats. It is filed as in vivo, rat. On the set-up: Diastolic Blood Pressure, Mean Change From Control: unit not given here. The protocol: This experiment was carried out to evaluate the effects of an ADE inhibitor compound of the invention upon blood pressure (systolic and diastolic) and heart rate in spontaneously hypertensive rats ("SHR"). Twenty-eight male SHR, weighing 200-300 g at the initiation of study, having a systolic blood pressure of 160 mm Hg or higher, and obtained from Charles River Laboratories (Wilmington, Mass.), were tested over a nine-day period. The animal room environment and photoperiod were controlled (temperature approximately 22° C.±3° C., humidity of 40 to 70%, 12 h light, 12 h dark), as was diet.
The compounds to be administered (compound (V), above, and rat ANF ("rANF")) were dissolved in a 0.9% saline solution and administered intravenously. The test animals were divided into seven distinct groups for purposes of dose administration, as follows:
Group 1. Four SHR rats were infused with 100 pmole/minute of RANF (0.026 ml/minute) for 20 minutes.
Group 2. Four SHR rats were administered an i.v. bolus of 2 mg/kg of compound (V).
Group 3. Four SHR rats were administered an i.v. bolus of 10 mg/kg of compound (V).
Group 4. Four SHR rats were infused with 0.2 mg/kg/min of compound (V) (0.026 ml/minute) for 20 minutes.
Group 5. Four SHR rats were administered an i.v. bolus of 2 mg/kg of compound (V) and then infused with 100 pmole/minute of RANF (0.026 ml/minute for 20 minutes.
Group 6. Four SHR rats were administered an i.v. bolus of 10 mg/kg of compound (V) and then infused with 100 pmole/minute of RANF (0.026 ml/minute) for 20 minutes.
Group 7. Four SHR rats were infused with 0.2 mg/kg/min of compound (V) (0.026 ml/minute) for 20 minutes and then infused with 100 pmole/minute of RANF ([…]) for 20 minutes.
Blood pressure and heart rate determinations were made at 5 minute intervals for 20 minutes prior to dose and at 5 minute intervals for a minimum of 40 minutes following the initiation of test article administration or until a return to control values was realized. Blood pressure was measured continuously for one minute using a Statham P23Db pressure transducer (Statham Instruments, Hata Rey, Puerto Rico), and a Grass Model 7 Polygraph (Glass Instrument Company, Quincy, Mass.). Heart rate was measured using a Narco biotachometer BT-1200 (Narco Biosystems, Houston, Tex.).

For series [3], the system named is atrial peptide-degrading enzyme (ADE). The series is described as follows: Degradation of peptide substrates by atrial peptide-degrading enzyme preparation (HPLC). Type of series: biochemical, bovine. The following applies: 50 μM substrate, 37° C.
Protocol: (c.) ADE Substrate and Inhibitor Studies: To study substrate selectivity of the atrial peptide-degrading enzyme, the pooled fractions from the Dynamax HPLC ion exchange, or Sephacryl S-200 columns, were incubated with 50 μM synthetic substrate and incubated at 37° C. for one or two hours. At the appropriate time, the samples were boiled, centrifuged and analyzed on the Vydac column as described above. The amount of substrate present after the incubation, as determined by integration of the HPLC peak, was compared with the initial substrate level.
For series [4] the test system is unchanged. The series is described as follows: pooled fractions from the Dynamax HPLC ion exchange, or Sephacryl S-200 columns (ADE isolated from bovine kidney cortex). The following applies: 37° C., up to two hours.
The mark [5] stands for this setting: (V) 20 min. infusion 0.2 mg/kg/min. i.v., interval 0 min.
The mark [6] stands for this setting: (V) 20 min. infusion 0.2 mg/kg/min. i.v., interval 5 min.
The mark [7] stands for this setting: (V) 20 min. infusion 0.2 mg/kg/min. i.v., interval 10 min.
The mark [8] stands for this setting: (V) 20 min. infusion 0.2 mg/kg/min. i.v., interval 15 min.
Where [9] appears, read: (V) 20 min. infusion 0.2 mg/kg/min. i.v., interval 20 min.
Setting [10] is: (V) 20 min. infusion 0.2 mg/kg/min. i.v., interval 25 min.
Setting [11] is: (V) 20 min. infusion 0.2 mg/kg/min. i.v., interval 30 min.
Setting [12] is: (V) 20 min. infusion 0.2 mg/kg/min. i.v., interval 35 min.
[13] abbreviates: (V) 20 min. infusion 0.2 mg/kg/min. i.v., interval 40 min.
Setting [14] is: (V) bolus injection 2 mg/kg i.v., interval 0 min.
The mark [15] stands for this setting: (V) bolus injection 2 mg/kg i.v., interval 5 min.
Setting [16] is: (V) bolus injection 2 mg/kg i.v., interval 10 min.
[17] abbreviates: (V) bolus injection 2 mg/kg i.v., interval 15 min.
The mark [18] stands for this setting: (V) bolus injection 2 mg/kg i.v., interval 20 min.
Setting [19] is: (V) bolus injection 2 mg/kg i.v., interval 25 min.
Where [20] appears, read: (V) bolus injection 2 mg/kg i.v., interval 30 min.
Where [21] appears, read: (V) bolus injection 2 mg/kg i.v., interval 35 min.
[22] abbreviates: (V) bolus injection 2 mg/kg i.v., interval 40 min.
Where [23] appears, read: (V) bolus injection 10 mg/kg i.v., interval 0 min.
Where [24] appears, read: (V) bolus injection 10 mg/kg i.v., interval 5 min.
[25] abbreviates: (V) bolus injection 10 mg/kg i.v., interval 10 min.
The mark [26] stands for this setting: (V) bolus injection 10 mg/kg i.v., interval 15 min.
Where [27] appears, read: (V) bolus injection 10 mg/kg i.v., interval 20 min.
Setting [28] is: (V) bolus injection 10 mg/kg i.v., interval 25 min.
[29] abbreviates: (V) bolus injection 10 mg/kg i.v., interval 30 min.
Setting [30] is: (V) bolus injection 10 mg/kg i.v., interval 35 min.
Where [31] appears, read: (V) bolus injection 10 mg/kg i.v., interval 40 min.
[32] abbreviates: (V) bolus injections at 2 and 10 mg/kg.
Setting [33] is: (V) infusion 0.2 mg/kg/minute for 20 minutes.

Where a SMILES comes first, the peptide text is derived from it. Where no end group is shown, it is not given here. [ ]: non-standard residue; d: D form. The star is where a group is joined. Boc = CC(C)(C)OC(=O)*

Turning to `CC(C)C[C@H](NC(=O)[C@@H](N)CO)C(=O)N[C@@H](CCCNC(=N)N)C(=O)N[C@@H](CCCNC(=N)N)C(=O)N[C@@H](CO)C(=O)N[C@@H](CO)C(=O)N[C@H](C)C(=O)NCC(=O)N[C@H](C)C(=O)N[C@@H](CC(N)=O)C(=O)N[C@@H](CS)C(=O)N[C@H](Cc1ccccc1)C(=O)N[C@@H](CCCNC(=N)N)C(=O)N[C@@H](Cc1ccc(O)cc1)C(N)=O` [(V), Ser-Leu-Arg-Arg-Ser-Ser-DAla-Gly-DAla-Asn-Cys-DPhe-Arg-Tyr-NH2] (H-SLRRSS[dA]G[dA]NC[dF]RY-NH2), 14.5 µM corresponded to half-maximal inhibition in series [1] (IC50). Moreover, the “% Inhibition At 0.1 mM” value in series [1] (0.1 mM) was determined as 81%. Also, the “Diastolic Blood Pressure, Mean Change From Control” value in series [2] (setting [5]) is reported as -4; in series [2] (setting [6]), -12; in series [2] (setting [7]), -15; in series [2] (setting [8]), -18; in series [2] (setting [9]), -20; in series [2] (setting [10]), -13. Also, the “Diastolic Blood Pressure, Mean Change From Control” value in series [2] (setting [11]) was -14; in series [2] (setting [12]) it was 0; in series [2] (setting [13]), -2; in series [2] (setting [14]) it was -61; in series [2] (setting [15]), -40; in series [2] (setting [16]), -14. Besides, the “Diastolic Blood Pressure, Mean Change From Control” value is on record as -8 in series [2] (setting [17]); -10 in series [2] (setting [18]); “+1” in series [2] (setting [19]); “+5” in series [2] (setting [20]); “+7” in series [2] (setting [21]); 0 in series [2] (setting [22]). Moreover, the “Diastolic Blood Pressure, Mean Change From Control” value is -66 in series [2] (setting [23]); -76 in series [2] (setting [24]); -61 in series [2] (setting [25]); -55 in series [2] (setting [26]); -35 in series [2] (setting [27]); -27 in series [2] (setting [28]). For the same compound, the results for the “Diastolic Blood Pressure, Mean Change From Control” value in series [2] (setting [29]), in series [2] (setting [30]) and in series [2] (setting [31]) were -17, -15 and “+10”, respectively. Besides, the “Systolic Blood Pressure, Mean Change From Control” value is reported as -1 in series [2] (setting [5]); -10 in series [2] (setting [6]); -18 in series [2] (setting [7]); -16 in series [2] (setting [8]); -26 in series [2] (setting [9]); -16 in series [2] (setting [10]). In addition, the “Systolic Blood Pressure, Mean Change From Control” value in series [2] (setting [11]) is on record as -9; in series [2] (setting [12]), 0; in series [2] (setting [13]), “+5”; in series [2] (setting [14]), -80; in series [2] (setting [15]) it was -50; in series [2] (setting [16]) it was -30. The “Systolic Blood Pressure, Mean Change From Control” value in series [2] (setting [17]) is recorded as -14; in series [2] (setting [18]) it was -13; in series [2] (setting [19]), -4; in series [2] (setting [20]) it was “+1”; in series [2] (setting [21]), “+2”; in series [2] (setting [22]), “+4”. The “Systolic Blood Pressure, Mean Change From Control” value is recorded as -76 in series [2] (setting [23]); -119 in series [2] (setting [24]); -100 in series [2] (setting [25]); -84 in series [2] (setting [26]); -55 in series [2] (setting [27]); -41 in series [2] (setting [28]). The “Systolic Blood Pressure, Mean Change From Control” value is given as -29 in series [2] (setting [29]), -21 in series [2] (setting [30]) and “+9” in series [2] (setting [31]). For the same compound, the “Duration of the blood pressure lowering following administration” value was 20 min in series [2] ((V) bolus 2 mg/kg) and 35 min in series [2] ((V) bolus 10 mg/kg). The “Effect on systolic and diastolic blood pressure, in words” value is “Dose-related decreases in systolic and diastolic blood pressure” in series [2] (setting [32]); “minimal decreases in systolic and diastolic blood pressure” in series [2] (setting [33]). Moreover, the “Effect upon heart rate” value in series [2] (setting [32]) and in series [2] (setting [33]) was “No effects upon heart rate” each time. Further, the “Duration of blood pressure decrease following the conclusion of the dose” value in series [2] (setting [33]) came out at 10 min.

On to `COC(=O)[C@H](Cc1ccccc1)NC(=O)[C@H](CO)NC(=O)[C@H](CC(N)=O)NC(=O)OC(C)(C)C` [Boc--Asn--Ser--Phe--OCH3] (Boc-Asn-Ser-Phe-OMe), for which, in series [3] (one or two hours), the “% Degraded (small peptides)” value amounted to 0%.

With `CC(C)C[C@H](NC(=O)CNC(=O)[C@H](Cc1ccc(O)cc1)NC(=O)[C@H](CO)NC(=O)[C@H](Cc1c[nH]c2ccccc12)NC(=O)[C@H](Cc1c[nH]cn1)NC(=O)[C@@H]1CCC(=O)N1)C(=O)N[C@@H](CCCNC(=N)N)C(=O)N1CCC[C@H]1C(=O)NCC(N)=O` [LHRH, pGlu--His--Trp--Ser--Tyr--Gly--Leu--Arg--Pro--Gly-NH2], the “% Degraded 1 h” value in series [3] was 0%.

“ANF: atrial natriuretic factor, carboxy terminal 28 amino acid fragment of α-ANF”: the “% Degraded 1 h” value in series [3] is above 95%.

Consider “API: rat atriopeptin I, atrial peptide prepared by solid phase synthesis (SSCFGGRIDRIGAQSGLGCNS; ends and bridges not checked; cysteine pairing not given here; UniProt P01161 127-147, looked up)”, for which the “% Degraded 1 h” value in series [3] is reported as 0%. Also, the “% Degraded 2 h” value in series [3] (2 h) is recorded as 0%.

In turn, Asn--Ser--Phe--Arg--Tyr had a not cleaved in series [4] of 8% degraded.

In series [4], Boc-Asn-Ser-Phe-OMe came in with a not cleaved of 0% degraded.

As to DVNTDRPG, the not cleaved in series [4] is recorded as 4% degraded at 1 h, 6% degraded at 2 h.

Turning to Hip--Ser--Phe--Arg, the not cleaved in series [4] was 0% degraded.

For LYKKIIKKLLES, the not cleaved in series [4] was determined as 0% degraded at 2 h.

With “pGlu--His--Trp--Ser--Tyr--Gly--Leu--Arg--Pro--Gly-NH2”, the not cleaved in series [4] was determined as 0% degraded at 1 h.
